Laboratory results from ChEMBL document CHEMBL6182916, “Unexpected Discovery of a Novel Triphenylphosphonium Alkylalcohol That Triggers Cancer Cell Death via Mitophagy and Ferroptosis” (J Med Chem, 2025).
Calls of active or inactive are those of the source. The rule behind the calls is not given here.

How the values were obtained:
[1] = Toxicity in female Kunming mouse assessed as change in body weight at 70 mg/kg, ip measured every two days for 7 days; assay type: organism-based; conditions: in vivo, 168 h, time 7 day
HCC827 [2] = test: Induction of apoptosis in human HCC827 cells assessed as necrotic cells at 1 uM measured after 48 hrs by annexin V and PI staining based flow cytometry analysis (Rvb =0.84%); assay type: functional
HCC827 [3] = test: Downregulation of TOMM20 expression level in human HCC827 cells at 0.5 uM by Western blot analysis; assay type: functional, cell-based; conditions: time 3-24 hrs
HCC827 [4] = test: Induction of cell cycle arrest in human HCC827 cells assessed as accumulation of cells at G1 phase incubated for 24 hrs by PI staining based flow cytometry analysis; assay type: functional; conditions: dose 0.1-0.4 µM
HCC827 [5] = test: Induction of ROS generation in human HCC827 cells assessed as increase in superoxide anion level by measuring increase in red fluorescence intensity at 1 uM incubated for 4 hrs by laser scanning confocal fluorescence microscopic analysis; assay type: functional, cell-based
HCC827 [6] = test: Induction of apoptosis in human HCC827 cells assessed as late apoptotic cells at 1 uM measured after 36 hrs by annexin V and PI staining based flow cytometry analysis (reference value: 2.18%); assay type: functional
HCC827 [7] = test: Induction of cell cycle arrest in human HCC827 cells assessed as accumulation of cells at G1 phase at 0.4 uM incubated for 24 hrs by PI staining based flow cytometry analysis (reference value: 66.44%); assay type: functional
[8] = Toxicity in female BALB/c mouse assessed as histopathological changes in lung at 30 mg/kg, ip measured for 7 days by H and E staining based analysis; assay type: organism-based; conditions: in vivo, 168 h, time 7 day
HCC827 [9] = test: Induction of cell cycle arrest in human HCC827 cells assessed as accumulation of cells at G2 phase at 0.4 uM incubated for 24 hrs by PI staining based flow cytometry analysis (reference value: 7.15%); assay type: functional
HCC827 [10] = test: Downregulation of […] protein level in human HCC827 cells at 0.25 to 0.5 uM measured after 12 hrs; assay type: functional, cell-based; conditions: dose 0.25-0.5 µM
HCC827 [11] = test: Induction of mitochondrial dysfunction in human HCC827 cells assessed as appearance of vacuoles with damaged mitochondria at 1 uM after 24 hrs by TEM analysis; assay type: functional, cell-based
[12] = Toxicity in female BALB/c mouse assessed as animal death at 30 mg/kg, ip measured for 7 days; assay type: organism-based; conditions: in vivo, 168 h, time 7 day
HCC827 [13] = test: Induction of mitochondrial dysfunction in human HCC827 cells assessed as suppression of basal respiration incubated for 4 hrs by Seahorse XF96 extracellular flux analyzer; assay type: functional, cell-based; conditions: dose 0.125-5 µM
HCC827 [14] = test: Antimetastatic activity against human HCC827 cells xenografted in female nude mouse model assessed as decrease in vimentin level at 5 to 10 mg/kg, ip by Western blot analysis; assay type: functional, organism-based; conditions: dose 5-10 mg/kg
HCC827 [15] = test: Induction of apoptosis in human HCC827 cells assessed as necrotic cells at 0.5 uM measured after 48 hrs by annexin V and PI staining based flow cytometry analysis (reference value: 1.18%); assay type: functional
NCI-H460 = test: Antiproliferative activity against human NCI-H460 cells assessed as inhibition of cell growth measured after 72 hrs by MTT assay; assay type: functional, cell-based; conditions: NCI-H460, 72 h
HCC827 [16] = test: Effect on UQCRC2 expression in human HCC827 cells at 0.25 to 0.5 uM; assay type: functional, cell-based; conditions: dose 0.25-0.5 µM
[17] = Antiproliferative activity against human LO2 cells assessed as inhibition of cell growth measured after 72 hrs by MTT assay; assay type: toxicity, cell-based, L02
HCC827 [18] = test: Antiproliferative activity against human HCC827 cells assessed as cell viability preincubated with Nec followed by compound addition and measured after 48 hrs by MTT assay; assay type: functional, cell-based
HCC827 [19] = test: Induction of apoptosis in human HCC827 cells assessed as viable cells at 1 uM measured after 36 hrs by annexin V and PI staining based flow cytometry analysis (reference value: 95.10%); assay type: functional; conditions: read-out: Activity
HCC827 [20] = test: Induction of mitochondrial dysfunction in human HCC827 cells assessed as cytochrome C release in cytoplasm at 0.4 uM by laser scanning confocal fluorescence microscopic analysis; assay type: functional, cell-based; conditions: time 24-72 hrs
HCC827 [21] = test: Downregulation of TIMM23 expression level in human HCC827 cells incubated for 24 hrs by Western blot analysis; assay type: functional, cell-based; conditions: dose 0.25-0.5 µM
HCC827 [22] = test: Induction of cell cycle arrest in human HCC827 cells assessed as accumulation of cells at G1 phase at 0.1 uM incubated for 24 hrs by PI staining based flow cytometry analysis (reference value: 66.44%); assay type: functional
HCC827 [23] = test: Induction of apoptosis in human HCC827 cells assessed as late apoptotic cells at 1 uM measured after 24 hrs by annexin V and PI staining based flow cytometry analysis (reference value: 2.18%); assay type: functional
HCC827 [24] = test: Induction of cell cycle arrest in human HCC827 cells assessed as accumulation of cells at S phase at 0.2 uM incubated for 24 hrs by PI staining based flow cytometry analysis (reference value: 26.41%); assay type: functional
BEAS-2B = test: Induction of mitochondrial dysfunction in human BEAS-2B cells assessed as reduction in glycolytic capacity at 0.125 to 5 uM incubated for 4 hrs by Seahorse XF96 extracellular flux analyzer; assay type: functional, cell-based; conditions: dose 0.125-5 µM
HEK-293T [25] = test: Inhibition of colony formation in HEK293T cells at 0.05 to 0.1 uM incubated for 72 hrs by crystal violet staining based analysis; assay type: functional, cell-based; conditions: Homo sapiens, dose 0.05-0.1 µM
HCC827 [26] = test: Induction of ferroptosis in human HCC827 cells assessed as increase in lipid peroxidation level incubated for 24 hrs by absorbance based analysis; assay type: functional, cell-based; conditions: dose 0.25-0.5 µM
HEK-293T [27] = test: Downregulation of TIMM23 expression level in human HEK293T cells; assay type: functional, cell-based; conditions: dose 0.25-0.5 µM
HCC827 [28] = test: Induction of ROS generation in human HCC827 cells at 1 uM incubated for 4 hrs in presence of NAC by DCFH-DA staining based by absorbance based laser confocal microscopic analysis; assay type: functional, cell-based
HCC827 [29] = test: Antitumor activity against human HCC827 cells xenografted in female nude mouse model assessed as reduction in tumor weight at 5 to 10 mg/kg, ip measured every two days for 14 days; assay type: functional, organism-based; conditions: dose 5-10 mg/kg, time 14.0 day
HCC827 [30] = test: Induction of apoptosis in human HCC827 cells assessed as late apoptotic cells at 0.5 uM measured after 48 hrs by annexin V and PI staining based flow cytometry analysis (reference value: 1.29%; assay type: functional
HCC827 [31] = test: Inhibition of colony formation in human HCC827 cells incubated for 72 hrs by crystal violet staining based analysis; assay type: functional, cell-based; conditions: dose 50-100 nM
HCC827 [32] = test: Induction of mitochondrial dysfunction in human HCC827 cells assessed as cytochrome C release in cytoplasm at 0.4 uM measured after 72 hrs by laser scanning confocal fluorescence microscopic analysis; assay type: functional, cell-based
HCT-116 = test: Antiproliferative activity against human HCT-116 cells assessed as inhibition of cell growth measured after 72 hrs by MTT assay; assay type: functional, cell-based; conditions: HCT-116, 72 h
Mitochondrial membrane = test: Induction of mitochondrial membrane depolarization in human BEAS-2B cells assessed as increase in JC-1 monomer ratio at 0.25 to 0.5 uM incubated for 4 hrs by JC-1 staining based confocal microscopy analysis; assay type: cell membranes; conditions: dose 0.25-0.5 µM
HeLa = test: Induction of mitophagy in human HeLa cells assessed as colocalization of mitochondria and lysosomes at 0.5 uM by lysotracker red staining based confocal microscopy analysis; assay type: functional, cell-based

In the case of Cc1ccc([P+](CCCCCCCCCCO)(c2ccc(C)cc2)c2ccc(C)cc2)cc1.[Br-], the Activity [1] is reported as “Toxic”, the Activity (HCC827 [2]) is reported as 2.02% and the Activity (HCC827 [3]) is reported as “Time-dependent-effect”. The Activity (HCC827 [4]) was “Dose-dependent-effect”, the Activity (HCC827 [5]) was “Active” and the Activity (HCC827 [6]) was 0.32%. For the same compound, the Activity (HCC827 [7]) was 85.66%, the Activity [8] was “Non-toxic” and the Activity (HCC827 [9]) was 4.95%. The Activity (HCC827 [10]) was “Active”, the Activity (HCC827 [11]) was “Active” and the Activity [12] was “Non-toxic”. For the same compound, the Activity (HCC827 [13]) was “Dose-dependent-effect”, the Activity (HCC827 [14]) was “Active” and the Activity (HCC827 [15]) was 2.09%. For the same compound, the IC50 (NCI-H460) was 110 nM, the Activity (HCC827 [16]) was “Active” and the IC50 at 72 h [17] was 1310 nM. The IC50 (HCC827 [18]) was 130 nM, the viability at 1 µM (HCC827 [19]) was 98.5% and the Activity (HCC827 [20]) was “Time-dependent-effect”. The Activity (HCC827 [21]) was “Dose-dependent-effect”, the Activity (HCC827 [22]) was 71.14% and the Activity (HCC827 [23]) was 3.84%. For the same compound, the Activity (HCC827 [24]) was 19.35%, the Activity (BEAS-2B) was “Minimal_effect” and the inhibition (HEK-293T [25]) was “Minimal_effect”. The Activity (HCC827 [26]) was “Dose-dependent-effect”, the Activity (HEK-293T [27]) was “Dose-dependent-effect” and the Activity (HCC827 [28]) was “inactive”. The Activity (HCC827 [29]) was “Active”, the Activity (HCC827 [30]) was 7.12% and the inhibition (HCC827 [31]) was “Dose-dependent-effect”. For the same compound, the Activity (HCC827 [32]) was “Active”, the IC50 (HCT-116) was 620 nM and the Activity (Mitochondrial membrane) was “inactive”. For the same compound, the Activity (HeLa) was “Active”.
